Measured values taken from US11542470B2, “Methods of differentiating stem cell-derived proprioceptors” (MEMORIAL SLOAN-KETTERING CANCER CENTER, priority 2016, dated 2023).

Columns and labels:
human stem cells = assay: Differentiation of human stem cells into sensory neuron subtypes in E8/E6 medium (TrkA, TrkB, TrkC); type: cell-based; conditions: CHIR99021 3 μM, 1.5 μM and 0.75 μM from day 2 through day 12, FIG. 3B
Procedure: An E8/E6 medium was used to differentiate human stem cells into sensory neurons, including nociceptors, proprioceptors, and mechanoceptors. […] On day 4, day 8, day 12, and day 16, the cells were measured for CD49d expression. […] On day 16 and day 20, cells were stained for BRN3A, TUJ1, and DAPI. […] TrkA is a nociceptor marker, TrkB is a mechanoreceptor marker, and TrkC is a proprioceptor marker.

rodent GSK3β homologs = conditions: cited from earlier work

Cc1c[nH]c(-c2cnc(NCCNc3ccc(C#N)cn3)nc2-c2ccc(Cl)cc2Cl)n1 [CHIR99021, 6-(2-(4-(2,4-dichlorophenyl)-5-(4-methyl-1H-imidazol-2-yl)pyrimidin-2-ylamino)ethylamino)nicotinonitrile]
generation of the three sensory neuron subtypes (nociceptors, proprioceptors, mechanoreceptors) (human stem cells): generated at similar efficiencies
IC50 values against rodent GSK3β homologs (rodent GSK3β homologs): nanomolar
